Laboratory results: ChEMBL document CHEMBL6127124, “Structure-Activity Relationships and Discovery of (S)-5-(tert-Butyl)-11-(difluoromethoxy)-9-methoxy-2-oxo-1,2,5,6-tetrahydropyrido[2',1':2,3]imidazo[4,5-h]quinoline-3-carboxylic Acid (AB-161), a Novel Orally Available and Liver-Centric HBV RNA Destabilizer” (J Med Chem, 2024)
pIC50: −log10 of the molar value.

Columns and labels:
Hepatitis B virus [1] = test: Antiviral activity against HBV genotype D in immuno-competent C57BL/6 mouse model of chronic HBV assessed as log10 reduction in HBsAg production at 10 mg/kg, po qd for 7 days measured 24 hrs post-last dose by EIA (reference value: 0.98); format: functional; details: time 8 day
Hepatitis B virus [2] = test: Antiviral activity against HBV genotype D in immuno-competent C57BL/6 mouse model of chronic HBV assessed as log10 reduction in HBsAg production at 3 mg/kg, po qd for 7 days measured 24 hrs post-last dose by EIA (reference value: 0.67); format: functional; details: time 8 day
[3] = Metabolic stability in Beagle dog liver microsomes assessed as clearance at 0.3 uM preincubated for 5 mins followed by NADPH addition measured upto 60 mins by LC-MS/MS analysis; format: ADME, Canis lupus familiaris, Microsome; details: read-out: CLH
[4] = Metabolic stability in human liver microsomes assessed as clearance at 0.3 uM preincubated for 5 mins followed by NADPH addition measured upto 60 mins by LC-MS/MS analysis; format: ADME, Microsome; details: time < 65 min, read-out: CLH
[5] = Permeability across basal to apical side in human Caco-2 cells at 5 uM incubated for 120 mins by LC-MS/MS analysis; format: ADME, cell-based; details: read-out: permeability
Cytochrome P450 2C19 = Cytochrome P450 2C19 (Homo sapiens, UniProt P33261); test: Inhibition of CYP2C19 in human liver microsomes using S-mephenytoin as substrate preincubated for 30 min followed by NADPH addition measured after 12 mins by LC-MS/MS analysis; format: ADME, Microsome
[6] = Selectivity ratio of drug concentration in liver in CD-1 mouse at 0.2 mg/kg, po measured for 12 hrs to EC90 for antiviral activity against HBV infected in human HepG2.2.15 cells assessed as reduction in HBsAg level; format: ADME, organism-based; details: in vivo
[7] = Drug concentration in CD-1 mouse kidney at 10 mg/kg, po measured for 24 hrs by LC-MS/MS analysis; format: ADME, organism-based; details: read-out: Ct
[8] = Drug concentration in CD-1 mouse heart at 10 mg/kg, po measured for 24 hrs by LC-MS/MS analysis; format: ADME, organism-based; details: read-out: Ct
[9] = Selectivity ratio of drug concentration in liver in CD-1 mouse at 0.2 mg/kg, po measured for 24 hrs to EC90 for antiviral activity against HBV infected in human HepG2.2.15 cells assessed as reduction in HBsAg level; format: ADME, organism-based; details: in vivo
[10] = Ratio of total drug concentration in liver to plasma in CD-1 mouse at 0.2 mg/kg, po measured for 12 hrs by LC-MS/MS analysis; format: ADME, organism-based; details: liver and plasma
Hepatitis B virus [11] = test: Antiviral activity against HBV genotype D in immuno-competent C57BL/6 mouse model of chronic HBV assessed as log10 reduction in serum HBsAg production at 30 mg/kg, po qd for 14 days measured 24 hrs post-last dose by EIA relative to control; format: functional; details: time 15 day
[12] = Drug concentration in Sprague-Dawley rat plasma at 5 mg/kg, po measured for 24 hrs by LC-MS/MS analysis; format: ADME, organism-based; details: read-out: Ct
[13] = Ratio of drug concentration in lung to plasma of CD-1 mouse at 10 mg/kg, po measured for 24 hrs by LC-MS/MS analysis; format: ADME, organism-based; details: lung and plasma
[14] = Ratio of drug concentration in lung to plasma of Sprague-Dawley rat at 5 mg/kg, po measured for 24 hrs by LC-MS/MS analysis; format: ADME, organism-based
[15] = Ratio of drug concentration in heart to plasma of CD-1 mouse at 10 mg/kg, po measured for 24 hrs by LC-MS/MS analysis; format: ADME, organism-based; details: heart and plasma
[16] = Drug concentration in Sprague-Dawley rat heart at 5 mg/kg, po measured for 24 hrs by LC-MS/MS analysis; format: ADME, organism-based
[17] = Ratio of drug concentration in kidney to plasma of CD-1 mouse at 10 mg/kg, po measured for 24 hrs by LC-MS/MS analysis; format: ADME, organism-based; details: kidney and plasma
[18] = Ratio of drug concentration in heart to plasma of Sprague-Dawley rat at 5 mg/kg, po measured for 24 hrs by LC-MS/MS analysis; format: ADME, organism-based
[19] = Drug concentration in Sprague-Dawley rat kidney at 5 mg/kg, po measured for 24 hrs by LC-MS/MS analysis; format: ADME, organism-based; details: read-out: Ct
Cytochrome P450 2D6 = Cytochrome P450 2D6 (Homo sapiens, UniProt P10635); test: Inhibition of CYP2D6 in human liver microsomes using dextromethorphan as substrate preincubated for 30 min followed by NADPH addition measured after 12 mins by LC-MS/MS analysis; format: ADME, Microsome
Cytochrome P450 2C9 = Cytochrome P450 2C9 (Homo sapiens, UniProt P11712); test: Inhibition of CYP2C9 in human liver microsomes using diclofenac as substrate preincubated for 30 min followed by NADPH addition measured after 12 mins by LC-MS/MS analysis; format: ADME, Microsome
Hepatitis B virus [20] = test: Antiviral activity against HBV genotype D in immuno-competent C57BL/6 mouse model of chronic HBV assessed as log10 reduction in serum HBsAg production at 0.3 mg/kg, po qd for 14 days measured 24 hrs post-last dose by EIA relative to control; format: functional; details: time 15 day
Cytochrome P450 3A4 = Cytochrome P450 3A4 (Homo sapiens, UniProt P08684); test: Inhibition of CYP3A4 in human liver microsomes using midazolam as substrate preincubated for 30 min followed by NADPH addition measured after 12 mins by LC-MS/MS analysis; format: ADME, Microsome
[21] = Drug concentration in Sprague-Dawley rat lung at 5 mg/kg, po measured for 24 hrs by LC-MS/MS analysis; format: ADME, organism-based
[22] = Drug concentration in CD-1 mouse lung at 10 mg/kg, po measured for 24 hrs by LC-MS/MS analysis; format: ADME, organism-based; details: read-out: Ct
[23] = Ratio of total drug concentration in liver to plasma in CD-1 mouse at 0.2 mg/kg, po measured for 24 hrs by LC-MS/MS analysis; format: ADME, organism-based; details: CD-1, mouse, liver and plasma
[24] = AUC (0 to 24 hrs) in CD-1 mouse at 0.2 mg/kg, po measured for 24 hrs by LC-MS/MS analysis; format: ADME, organism-based; details: in vivo
[25] = in vivo, po, 5 mg/kg, 24 h, BLD = below limit of detection

Cytochrome P450 2C19, sequence (P33261 whole entry): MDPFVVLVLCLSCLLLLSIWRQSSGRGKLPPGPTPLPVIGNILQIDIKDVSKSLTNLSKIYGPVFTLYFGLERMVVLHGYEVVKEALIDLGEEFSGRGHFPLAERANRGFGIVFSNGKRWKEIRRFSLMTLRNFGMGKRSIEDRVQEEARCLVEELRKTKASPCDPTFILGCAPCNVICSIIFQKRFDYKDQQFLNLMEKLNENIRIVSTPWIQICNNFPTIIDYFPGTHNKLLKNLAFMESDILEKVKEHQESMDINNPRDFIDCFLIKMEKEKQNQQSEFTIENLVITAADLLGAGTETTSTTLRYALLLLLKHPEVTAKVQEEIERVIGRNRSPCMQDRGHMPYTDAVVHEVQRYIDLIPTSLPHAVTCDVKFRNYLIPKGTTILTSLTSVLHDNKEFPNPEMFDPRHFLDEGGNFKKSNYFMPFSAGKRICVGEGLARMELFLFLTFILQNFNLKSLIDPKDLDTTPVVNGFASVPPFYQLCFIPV
Cytochrome P450 2D6, sequence (P10635 whole entry): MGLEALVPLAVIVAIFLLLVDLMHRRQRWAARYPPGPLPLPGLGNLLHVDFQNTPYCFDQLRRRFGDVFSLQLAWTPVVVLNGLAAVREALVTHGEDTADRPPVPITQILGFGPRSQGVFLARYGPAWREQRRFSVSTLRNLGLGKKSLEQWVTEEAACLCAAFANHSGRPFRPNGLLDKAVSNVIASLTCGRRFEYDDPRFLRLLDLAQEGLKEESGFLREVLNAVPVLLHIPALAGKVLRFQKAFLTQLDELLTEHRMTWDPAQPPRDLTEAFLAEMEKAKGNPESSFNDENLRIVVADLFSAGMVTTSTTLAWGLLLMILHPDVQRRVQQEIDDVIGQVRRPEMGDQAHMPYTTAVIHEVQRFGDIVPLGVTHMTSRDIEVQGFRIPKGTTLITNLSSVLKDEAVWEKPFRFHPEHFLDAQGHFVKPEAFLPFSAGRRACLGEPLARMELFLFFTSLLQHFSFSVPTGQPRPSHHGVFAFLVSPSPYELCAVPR
Cytochrome P450 3A4, sequence (P08684 whole entry): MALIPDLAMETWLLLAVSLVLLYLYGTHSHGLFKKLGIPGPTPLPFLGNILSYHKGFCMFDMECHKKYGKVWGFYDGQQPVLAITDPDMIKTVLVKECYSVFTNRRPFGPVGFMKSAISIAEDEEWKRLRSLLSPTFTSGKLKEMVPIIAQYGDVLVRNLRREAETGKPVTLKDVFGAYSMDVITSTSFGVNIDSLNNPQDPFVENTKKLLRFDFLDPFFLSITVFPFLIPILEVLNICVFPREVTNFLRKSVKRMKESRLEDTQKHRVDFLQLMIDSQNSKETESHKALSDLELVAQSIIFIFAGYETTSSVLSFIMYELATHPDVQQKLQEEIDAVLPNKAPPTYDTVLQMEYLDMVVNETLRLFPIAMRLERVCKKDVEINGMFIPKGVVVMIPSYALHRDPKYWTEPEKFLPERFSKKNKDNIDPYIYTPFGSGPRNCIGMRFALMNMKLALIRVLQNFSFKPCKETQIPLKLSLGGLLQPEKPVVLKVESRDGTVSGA
Cytochrome P450 2C9, sequence (P11712 whole entry): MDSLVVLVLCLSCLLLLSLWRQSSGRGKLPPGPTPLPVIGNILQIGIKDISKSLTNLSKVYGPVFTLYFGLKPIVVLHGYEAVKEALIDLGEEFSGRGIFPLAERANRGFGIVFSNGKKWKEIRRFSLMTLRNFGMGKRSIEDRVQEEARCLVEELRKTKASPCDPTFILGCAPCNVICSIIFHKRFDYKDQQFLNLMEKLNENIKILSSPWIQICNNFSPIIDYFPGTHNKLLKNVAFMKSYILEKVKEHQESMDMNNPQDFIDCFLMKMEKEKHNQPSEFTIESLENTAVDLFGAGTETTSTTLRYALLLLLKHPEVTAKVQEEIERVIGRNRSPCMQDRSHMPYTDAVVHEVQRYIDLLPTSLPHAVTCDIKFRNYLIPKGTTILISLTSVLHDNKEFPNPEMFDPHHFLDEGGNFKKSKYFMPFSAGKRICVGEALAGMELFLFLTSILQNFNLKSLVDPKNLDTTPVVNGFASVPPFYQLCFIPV

Row | microsomal CLint at 0.3 µM [4] [µL/min/mg] | Papp B→A at 2 h, 5 µM [5] [×10⁻⁶ cm/s] | pIC50 (Cytochrome P450 2C19) | concentration at 24 h [7] [ng/g] | concentration at 24 h [8] [ng/g] | Kp at 12 h [10] | concentration at 24 h [12] [ng/g] | Kp at 24 h [13] | Kp at 24 h [15] | Kp at 24 h [17] | concentration at 24 h [19] [ng/g] | pIC50 (Cytochrome P450 2D6) | pIC50 (Cytochrome P450 2C9) | Structure (SMILES) | log(activity) (Hepatitis B virus [1]) | log(activity) (Hepatitis B virus [2]) | microsomal CLint at 0.3 µM [3] [µL/min/mg] | Ratio [6] | Ratio [9] | log(activity) (Hepatitis B virus [11]) | log(activity) (Hepatitis B virus [20]) | also measured
1 | 4 | 54.5 | 4.68 | 71 | 15 | 284 | 0.7 | 0.4 | 0.3 | 1.3 | 5.5 | < 4.60 | 4.66 | COc1cc(OC(F)F)c2nc3c(n2c1)C[C@@H](C(C)(C)C)c1cc(C(=O)O)c(=O)[nH]c1-3 | 0.67 | 0.8 | 6 | 166 | 40 | 0.94 | 0.13 | Ratio [14, 25]: Bld; Ct [16, 25]: Bld; Ratio [18, 25]: Bld; pIC50 (Cytochrome P450 3A4): < 4.60; Ct [21, 25]: Bld; concentration at 24 h [22]: 25 ng/g; Kp at 24 h [23]: 116; AUC(0-t) at 24 h [24]: 148 ng·h/mL
2 | 1 | 65.6 | 4.66 | 23 | 15 | 120 | 6.7 | 0.4 | 0.2 | 0.3 | 6 | < 4.60 | 4.68 | CC(C)(C)[C@@H]1Cc2c(nc3c(C(F)(F)F)cc(C4CC4)cn23)-c2[nH]c(=O)c(C(=O)O)cc21 | – | – | – | 572 | 51 | 1.35 | 0.35 | Kp at 24 h ([14]; Sprague-Dawley, lung and plasma): 0.7; concentration at 24 h ([16]; Sprague-Dawley, heart, read-out: Ct): 1.3 ng/g; Kp at 24 h ([18]; Sprague-Dawley, heart and plasma): 0.2; pIC50 (Cytochrome P450 3A4): < 4.60; concentration at 24 h ([21]; Sprague-Dawley, lung, read-out: Ct): 5 ng/g; concentration at 24 h [22]: 35 ng/g; Kp at 24 h [23]: 97; AUC(0-t) at 24 h [24]: 273 ng·h/mL

Row | Structure (SMILES) | microsomal CLint at 0.3 µM [4] [µL/min/mg] | Papp B→A at 2 h, 5 µM [5] [×10⁻⁶ cm/s] | pIC50 (Cytochrome P450 2C19) | concentration at 24 h [7] [ng/g] | concentration at 24 h [8] [ng/g] | Kp at 12 h [10] | concentration at 24 h [12] [ng/g] | Kp at 24 h [13] | Kp at 24 h [15] | Kp at 24 h [17] | concentration at 24 h [19] [ng/g] | pIC50 (Cytochrome P450 2D6) | pIC50 (Cytochrome P450 2C9) | log(activity) (Hepatitis B virus [1]) | log(activity) (Hepatitis B virus [2]) | microsomal CLint at 0.3 µM [3] [µL/min/mg] | Ratio [6] | Ratio [9] | log(activity) (Hepatitis B virus [11]) | log(activity) (Hepatitis B virus [20]) | also measured
3 | COCCCOc1cc2c(nc1OC)-c1cc(=O)c(C(=O)O)cn1[C@H](C(C)C)C2 | 2 | 43.8 | – | – | – | – | – | – | – | – | – | – | – | 0.7 | 0.68 | 4 | – | – | – | – | –
